{
  "source": "paper PMC6199744",
  "about": "“Development of Chemical Proteomics for the Folateome and Analysis of the Kinetoplastid Folateome” (ACS Infectious Diseases, 2018)",
  "assay_type_in_all_cases": "binding",
  "key": {"[1]": {"biological_target": "T1, HeLa cell extract proteins (Homo sapiens, UniProt P13807)", "T1 construct": "endogenous in cells; host or cells: HeLa cell extract", "T1 sequence (P13807 1-737)": "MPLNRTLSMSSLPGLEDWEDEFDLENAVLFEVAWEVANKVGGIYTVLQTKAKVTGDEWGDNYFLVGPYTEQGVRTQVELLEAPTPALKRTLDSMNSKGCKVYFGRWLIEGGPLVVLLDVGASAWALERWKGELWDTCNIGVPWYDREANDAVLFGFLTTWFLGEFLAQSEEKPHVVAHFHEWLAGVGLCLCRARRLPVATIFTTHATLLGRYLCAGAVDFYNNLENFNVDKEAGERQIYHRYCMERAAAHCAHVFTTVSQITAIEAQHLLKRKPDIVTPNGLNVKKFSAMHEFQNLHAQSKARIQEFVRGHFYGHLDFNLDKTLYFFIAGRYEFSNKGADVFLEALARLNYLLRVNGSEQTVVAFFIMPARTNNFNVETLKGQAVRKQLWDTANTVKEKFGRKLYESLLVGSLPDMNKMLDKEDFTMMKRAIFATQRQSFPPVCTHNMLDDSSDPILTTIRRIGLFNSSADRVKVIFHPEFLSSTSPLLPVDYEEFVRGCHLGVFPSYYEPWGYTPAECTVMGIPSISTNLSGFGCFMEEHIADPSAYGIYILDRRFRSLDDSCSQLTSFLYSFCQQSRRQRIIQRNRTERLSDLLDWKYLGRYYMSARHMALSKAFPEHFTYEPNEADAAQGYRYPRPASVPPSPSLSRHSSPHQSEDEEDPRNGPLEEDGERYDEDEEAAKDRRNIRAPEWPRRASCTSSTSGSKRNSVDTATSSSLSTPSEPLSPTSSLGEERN"}, "[2]": {"biological_target": "T2, HeLa cell extract proteins (Homo sapiens, UniProt P29692)", "T2 construct": "endogenous in cells; host or cells: HeLa cell extract", "T2 sequence (P29692 1-281)": "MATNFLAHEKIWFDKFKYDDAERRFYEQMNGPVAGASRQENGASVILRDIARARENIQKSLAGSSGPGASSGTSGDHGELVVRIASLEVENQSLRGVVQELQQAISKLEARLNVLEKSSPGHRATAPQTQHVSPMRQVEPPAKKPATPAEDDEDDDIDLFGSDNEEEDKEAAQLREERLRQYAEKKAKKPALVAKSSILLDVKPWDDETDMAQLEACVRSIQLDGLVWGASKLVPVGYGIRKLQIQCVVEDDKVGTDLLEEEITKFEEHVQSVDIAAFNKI"}, "[3]": {"biological_target": "T3, HeLa cell extract proteins (Homo sapiens, UniProt P47712)", "T3 construct": "endogenous in cells; host or cells: HeLa cell extract", "T3 sequence (P47712 1-749)": "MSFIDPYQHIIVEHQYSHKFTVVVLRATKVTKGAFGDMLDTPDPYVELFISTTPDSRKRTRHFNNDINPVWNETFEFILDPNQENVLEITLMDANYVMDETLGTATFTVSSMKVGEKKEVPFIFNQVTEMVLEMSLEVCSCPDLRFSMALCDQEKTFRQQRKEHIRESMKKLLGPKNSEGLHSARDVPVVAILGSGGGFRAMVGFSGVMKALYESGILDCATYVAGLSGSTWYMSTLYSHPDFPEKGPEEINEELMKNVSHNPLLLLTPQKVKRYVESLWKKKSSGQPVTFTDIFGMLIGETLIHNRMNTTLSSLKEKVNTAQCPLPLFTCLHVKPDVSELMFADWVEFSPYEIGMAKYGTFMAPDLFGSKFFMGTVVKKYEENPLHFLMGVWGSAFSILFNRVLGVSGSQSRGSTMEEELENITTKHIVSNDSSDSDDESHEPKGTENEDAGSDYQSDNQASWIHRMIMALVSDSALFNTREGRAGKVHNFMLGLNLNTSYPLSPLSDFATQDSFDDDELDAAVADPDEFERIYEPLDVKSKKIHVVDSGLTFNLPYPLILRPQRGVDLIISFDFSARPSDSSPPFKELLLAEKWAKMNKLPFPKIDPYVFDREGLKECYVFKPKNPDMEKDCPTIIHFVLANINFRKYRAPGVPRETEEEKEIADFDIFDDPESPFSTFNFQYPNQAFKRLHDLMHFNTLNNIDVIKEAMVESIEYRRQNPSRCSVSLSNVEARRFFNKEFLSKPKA"}, "[4]": {"biological_target": "T4, HeLa cell extract proteins (Homo sapiens, UniProt P55795)", "T4 construct": "endogenous in cells; host or cells: HeLa cell extract", "T4 sequence (P55795 1-449)": "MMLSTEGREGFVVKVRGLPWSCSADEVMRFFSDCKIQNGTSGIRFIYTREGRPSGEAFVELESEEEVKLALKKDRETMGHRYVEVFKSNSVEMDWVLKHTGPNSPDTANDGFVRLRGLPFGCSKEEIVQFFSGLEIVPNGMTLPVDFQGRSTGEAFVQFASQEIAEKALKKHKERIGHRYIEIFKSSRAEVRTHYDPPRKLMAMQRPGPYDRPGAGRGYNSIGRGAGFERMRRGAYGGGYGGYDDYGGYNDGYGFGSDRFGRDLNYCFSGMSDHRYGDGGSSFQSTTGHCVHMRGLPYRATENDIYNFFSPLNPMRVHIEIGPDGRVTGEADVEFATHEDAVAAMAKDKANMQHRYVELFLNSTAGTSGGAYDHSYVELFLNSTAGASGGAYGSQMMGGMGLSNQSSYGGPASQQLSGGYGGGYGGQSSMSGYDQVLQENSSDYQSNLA"}, "[5]": {"biological_target": "T5, HeLa cell extract proteins (Homo sapiens, UniProt P62820)", "T5 construct": "endogenous in cells; host or cells: HeLa cell extract", "T5 sequence (P62820 whole entry)": "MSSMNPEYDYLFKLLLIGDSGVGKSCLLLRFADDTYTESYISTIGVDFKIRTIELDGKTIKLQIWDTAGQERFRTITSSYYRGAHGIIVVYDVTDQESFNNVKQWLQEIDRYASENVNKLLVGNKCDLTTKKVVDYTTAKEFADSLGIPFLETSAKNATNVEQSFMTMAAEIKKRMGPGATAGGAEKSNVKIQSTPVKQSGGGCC"}, "[6]": {"biological_target": "T6, HeLa cell extract proteins (Homo sapiens, UniProt Q9NPA3)", "T6 construct": "endogenous in cells; host or cells: HeLa cell extract", "T6 sequence (Q9NPA3 whole entry)": "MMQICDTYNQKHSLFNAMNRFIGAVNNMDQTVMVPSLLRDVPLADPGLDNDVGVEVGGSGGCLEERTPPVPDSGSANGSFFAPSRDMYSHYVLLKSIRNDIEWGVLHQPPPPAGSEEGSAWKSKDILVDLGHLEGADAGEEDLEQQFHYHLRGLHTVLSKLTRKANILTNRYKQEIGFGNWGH"}},
  "note": "Where two headings read alike, the source gives them in different places.",
  "data": [
    {"compound": "Nc1nc2cccc(-c3ccccc3)c2n1Cc1ccc(Cl)c(Cl)c1", "note": "[compound 3]", "values": [
      {"measurement": "fold changes relative to vehicle control", "setting": "[1]; captured protein GYS1, HeLa", "result": 0.93},
      {"measurement": "fold changes relative to vehicle control", "setting": "[2]; protein EEF1D, HeLa", "result": 1.1},
      {"measurement": "fold changes relative to vehicle control", "setting": "[3]; protein PLA2G4A, HeLa", "result": 0.91},
      {"measurement": "fold changes relative to vehicle control", "setting": "[4]; protein HNRNPH2, HeLa", "result": 1.05},
      {"measurement": "fold changes relative to vehicle control", "setting": "[5]; captured protein RAB1A, HeLa", "result": 0.91},
      {"measurement": "fold changes relative to vehicle control", "setting": "[6]; captured protein MIG12, HeLa", "result": 0.95}
    ]},
    {"compound": "Nc1nc2[nH]cc(CCc3ccc(C(=O)N[C@@H](CCC(=O)O)C(=O)O)cc3)c2c(=O)[nH]1", "note": "[PTX, pemetrexed]", "values": [
      {"measurement": "fold changes relative to vehicle control", "setting": "[1]", "result": 0.94},
      {"measurement": "fold changes relative to vehicle control", "setting": "[2]", "result": 1.01},
      {"measurement": "fold changes relative to vehicle control", "setting": "[3]", "result": 1.13},
      {"measurement": "fold changes relative to vehicle control", "setting": "[4]", "result": 0.82},
      {"measurement": "fold changes relative to vehicle control", "setting": "[5]", "result": 1.17},
      {"measurement": "fold changes relative to vehicle control", "setting": "[6]", "result": 0.96}
    ]},
    {"compound": "Nc1nc2c(c(=O)[nH]1)N(C=O)C(CNc1ccc(C(=O)N[C@@H](CCC(=O)O)C(=O)O)cc1)CN2", "note": "(stereo partly drawn) [LEU, leucovorin]", "values": [
      {"measurement": "fold changes relative to vehicle control", "setting": "[1]; HeLa, protein GYS1", "result": 0.97},
      {"measurement": "fold changes relative to vehicle control", "setting": "[2]; protein EEF1D, HeLa", "result": 0.99},
      {"measurement": "fold changes relative to vehicle control", "setting": "[3]; HeLa, protein PLA2G4A", "result": 0.94},
      {"measurement": "fold changes relative to vehicle control", "setting": "[4]; HeLa, captured protein HNRNPH2", "result": 0.9},
      {"measurement": "fold changes relative to vehicle control", "setting": "[5]; HeLa, protein RAB1A", "result": 1.2},
      {"measurement": "fold changes relative to vehicle control", "setting": "[6]; HeLa, protein MIG12", "result": 0.91}
    ]},
    {"compound": "CCCCCCOc1cccc(Cc2cnc(N)nc2N)c1", "note": "[compound 2]", "values": [
      {"measurement": "fold changes relative to vehicle control", "setting": "[1]; captured protein GYS1, HeLa", "result": 0.84},
      {"measurement": "fold changes relative to vehicle control", "setting": "[2]; protein EEF1D, HeLa", "result": 1.8},
      {"measurement": "fold changes relative to vehicle control", "setting": "[3]; protein PLA2G4A, HeLa", "result": 1.72},
      {"measurement": "fold changes relative to vehicle control", "setting": "[4]; protein HNRNPH2, HeLa", "result": 0.96},
      {"measurement": "fold changes relative to vehicle control", "setting": "[5]; captured protein RAB1A, HeLa", "result": 1.19},
      {"measurement": "fold changes relative to vehicle control", "setting": "[6]; captured protein MIG12, HeLa", "result": 1}
    ]},
    {"compound": "NCCOCCOCC(=O)Nc1nc2ncc(CNc3ccc(C(=O)NC(CCC(=O)O)C(=O)O)cc3)nc2c(=O)[nH]1", "note": "(stereo not drawn) [compound 6]", "values": [
      {"measurement": "fold changes relative to vehicle control", "setting": "[1]; HeLa, protein GYS1", "result": 0.98},
      {"measurement": "fold changes relative to vehicle control", "setting": "[2]; protein EEF1D, HeLa", "result": 1.09},
      {"measurement": "fold changes relative to vehicle control", "setting": "[3]; HeLa, protein PLA2G4A", "result": 1.18},
      {"measurement": "fold changes relative to vehicle control", "setting": "[4]; HeLa, captured protein HNRNPH2", "result": 0.83},
      {"measurement": "fold changes relative to vehicle control", "setting": "[5]; HeLa, protein RAB1A", "result": 1.21},
      {"measurement": "fold changes relative to vehicle control", "setting": "[6]; HeLa, protein MIG12", "result": 1.1}
    ]},
    {"compound": "CCCCCCOc1ccc(Cc2cnc(N)nc2N)cc1", "note": "[compound 1]", "values": [
      {"measurement": "fold changes relative to vehicle control", "setting": "[1]; captured protein GYS1, HeLa", "result": 0.9},
      {"measurement": "fold changes relative to vehicle control", "setting": "[2]; protein EEF1D, HeLa", "result": 1.26},
      {"measurement": "fold changes relative to vehicle control", "setting": "[3]; protein PLA2G4A, HeLa", "result": 1},
      {"measurement": "fold changes relative to vehicle control", "setting": "[4]; protein HNRNPH2, HeLa", "result": 0.93},
      {"measurement": "fold changes relative to vehicle control", "setting": "[5]; captured protein RAB1A, HeLa", "result": 0.74},
      {"measurement": "fold changes relative to vehicle control", "setting": "[6]; captured protein MIG12, HeLa", "result": 0.84}
    ]},
    {"compound": "NCCCNc1ccc(C(=O)NC(CCC(=O)O)C(=O)O)cc1", "note": "(stereo not drawn) [compound 7]", "values": [
      {"measurement": "fold changes relative to vehicle control", "setting": "[1]; HeLa, protein GYS1", "result": 0.98},
      {"measurement": "fold changes relative to vehicle control", "setting": "[2]; protein EEF1D, HeLa", "result": 0.93},
      {"measurement": "fold changes relative to vehicle control", "setting": "[3]; HeLa, protein PLA2G4A", "result": 0.88},
      {"measurement": "fold changes relative to vehicle control", "setting": "[4]; HeLa, captured protein HNRNPH2", "result": 0.91},
      {"measurement": "fold changes relative to vehicle control", "setting": "[5]; HeLa, protein RAB1A", "result": 1.07},
      {"measurement": "fold changes relative to vehicle control", "setting": "[6]; HeLa, protein MIG12", "result": 1.11}
    ]}
  ]
}
